From the NIST ThermoML archive (doi:10.1021/acs.jced.8b01120)
Numbers after ± are expanded uncertainties.

Test: xn = mol fraction of the nth substance listed
Conditions: 100 kPa, Liquid; for speed of sound: Single path-length method; for mass density: Vibrating tube method

CCCCN(CCCC)CCCC [tributylamine] + CCCOC(C)=O
Conditions | mass density, 293.15 K [kg/m3] | mass density, 298.15 K [kg/m3] | mass density, 303.15 K [kg/m3] | mass density, 308.15 K [kg/m3] | mass density, 313.15 K [kg/m3] | speed of sound, 293.15 K [m/s] | speed of sound, 298.15 K [m/s] | speed of sound, 303.15 K [m/s] | speed of sound, 308.15 K [m/s] | speed of sound, 313.15 K [m/s]
x1 = 0.0509 | 876.475 ± 2.1 | 871.105 ± 2.1 | 865.344 ± 2.1 | 859.857 ± 2.1 | 854.206 ± 2.1 | 1193.8 ± 4.4 | 1167.9 ± 4.4 | 1148.6 ± 4.4 | 1127.2 ± 4.4 | 1105.2 ± 4.4
x1 = 0.1204 | 861.989 ± 2.1 | 856.798 ± 2.1 | 851.275 ± 2.1 | 845.985 ± 2.1 | 840.603 ± 2.1 | 1198.3 ± 4.4 | 1173.2 ± 4.4 | 1154.3 ± 4.4 | 1132.9 ± 4.4 | 1111.2 ± 4.4
x1 = 0.2066 | 846.28 ± 2.1 | 841.395 ± 2.1 | 836.192 ± 2.1 | 831.184 ± 2 | 826.095 ± 2 | 1205.3 ± 4.3 | 1180.5 ± 4.3 | 1161.6 ± 4.3 | 1140.7 ± 4.3 | 1119.1 ± 4.3
x1 = 0.306 | 831.793 ± 2 | 827.121 ± 2 | 822.274 ± 2 | 817.519 ± 2 | 812.694 ± 2 | 1212 ± 4.3 | 1188.5 ± 4.3 | 1169.1 ± 4.3 | 1148.2 ± 4.3 | 1127.6 ± 4.3
x1 = 0.4043 | 819.864 ± 2 | 815.394 ± 2 | 810.785 ± 2 | 806.239 ± 2 | 801.63 ± 2 | 1219.3 ± 4.2 | 1196.3 ± 4.2 | 1177 ± 4.2 | 1156.6 ± 4.2 | 1136 ± 4.2
x1 = 0.5015 | 809.872 ± 2 | 805.603 ± 2 | 801.221 ± 2 | 796.775 ± 2 | 792.345 ± 2 | 1226.3 ± 4.2 | 1204.6 ± 4.2 | 1185.2 ± 4.2 | 1165.4 ± 4.2 | 1144.9 ± 4.2
x1 = 0.6007 | 801.215 ± 2 | 797.082 ± 2 | 792.841 ± 2 | 788.618 ± 2 | 784.342 ± 2 | 1233.2 ± 4.1 | 1212.4 ± 4.1 | 1192.9 ± 4.1 | 1172.6 ± 4.1 | 1153.4 ± 4.1
x1 = 0.7102 | 793.047 ± 2 | 789.025 ± 2 | 784.905 ± 2 | 780.824 ± 2 | 776.694 ± 2 | 1241.2 ± 4.1 | 1221.4 ± 4.1 | 1201.8 ± 4.1 | 1182.1 ± 4.1 | 1162.6 ± 4.1
x1 = 0.8007 | 787.307 ± 2 | 783.381 ± 2 | 779.377 ± 2 | 775.39 ± 2 | 771.367 ± 2 | 1248.5 ± 4.1 | 1228.5 ± 4.1 | 1209.3 ± 4.1 | 1190 ± 4.1 | 1171.2 ± 4.1
x1 = 0.9008 | 781.809 ± 2 | 777.98 ± 2 | 774.088 ± 2 | 770.204 ± 2 | 766.273 ± 2 | 1255.7 ± 4.1 | 1236.5 ± 4.1 | 1217.8 ± 4.1 | 1197.9 ± 4.1 | 1179.1 ± 4.1
x1 = 1 | 777.006 ± 2 | 773.283 ± 2 | 769.552 ± 2 | 765.811 ± 2 | 762.061 ± 2 | 1264.2 ± 4 | 1245.2 ± 4 | 1226.2 ± 4 | 1207.4 ± 4 | 1188.8 ± 4

CCCCN(CCCC)CCCC [tributylamine] + CCOC(C)=O
Conditions | mass density, 293.15 K [kg/m3] | mass density, 298.15 K [kg/m3] | mass density, 303.15 K [kg/m3] | mass density, 308.15 K [kg/m3] | mass density, 313.15 K [kg/m3] | speed of sound, 293.15 K [m/s] | speed of sound, 298.15 K [m/s] | speed of sound, 303.15 K [m/s] | speed of sound, 308.15 K [m/s] | speed of sound, 313.15 K [m/s]
x1 = 0.0502 | 886.034 ± 2 | 880.238 ± 2 | 874.248 ± 2 | 868.137 ± 2 | 862.077 ± 2 | 1168.6 ± 4 | 1146.5 ± 4 | 1124.6 ± 4 | 1102.3 ± 4 | 1080.9 ± 4
x1 = 0.104 | 872.134 ± 2 | 866.571 ± 2 | 860.881 ± 2 | 854.773 ± 2 | 848.939 ± 2 | 1172.6 ± 4 | 1152.6 ± 4 | 1129.9 ± 4 | 1108.7 ± 4 | 1088.3 ± 4
x1 = 0.2041 | 850.473 ± 2 | 845.352 ± 2 | 840.168 ± 2 | 834.885 ± 2 | 829.51 ± 2 | 1182.8 ± 4 | 1162.8 ± 4 | 1140.7 ± 4 | 1119.9 ± 4 | 1098.8 ± 4
x1 = 0.3022 | 834.126 ± 2 | 829.336 ± 2 | 824.418 ± 2 | 819.471 ± 2 | 814.442 ± 2 | 1193.2 ± 4 | 1172.8 ± 4 | 1151.3 ± 4 | 1131.6 ± 4 | 1109.3 ± 4
x1 = 0.402 | 820.855 ± 2 | 816.274 ± 2 | 811.568 ± 2 | 806.892 ± 2 | 802.143 ± 2 | 1203.3 ± 4 | 1182.8 ± 4 | 1161.7 ± 4 | 1141.7 ± 4 | 1120.9 ± 4
x1 = 0.5017 | 810.036 ± 2 | 805.655 ± 2 | 801.215 ± 2 | 796.734 ± 2 | 792.21 ± 2 | 1213.4 ± 4 | 1194 ± 4 | 1172.7 ± 4 | 1152.9 ± 4 | 1132.9 ± 4
x1 = 0.6003 | 801.163 ± 2 | 796.948 ± 2 | 792.639 ± 2 | 788.358 ± 2 | 784.016 ± 2 | 1223 ± 4 | 1203.8 ± 4 | 1182.3 ± 4 | 1163.6 ± 4 | 1143.3 ± 4
x1 = 0.7004 | 793.656 ± 2 | 789.584 ± 2 | 785.465 ± 2 | 781.294 ± 2 | 777.107 ± 2 | 1233.6 ± 4 | 1214.6 ± 4 | 1193.2 ± 4 | 1174.6 ± 4 | 1154.3 ± 4
x1 = 0.8009 | 787.308 ± 2 | 783.362 ± 2 | 779.404 ± 2 | 775.399 ± 2 | 771.342 ± 2 | 1244 ± 4 | 1224.7 ± 4 | 1205.4 ± 4 | 1185.6 ± 4 | 1166.1 ± 4
x1 = 0.9011 | 781.785 ± 2 | 777.942 ± 2 | 774.089 ± 2 | 770.192 ± 2 | 766.343 ± 2 | 1253.8 ± 4 | 1234.6 ± 4 | 1215.4 ± 4 | 1196.5 ± 4 | 1177.7 ± 4
x1 = 1 | 777.006 ± 2 | 773.283 ± 2 | 769.552 ± 2 | 765.811 ± 2 | 762.061 ± 2 | 1264.2 ± 4 | 1245.2 ± 4 | 1226.2 ± 4 | 1207.4 ± 4 | 1188.8 ± 4
